Measured values from US9630947B2, “Therapeutic compounds and related methods of use” (OTSUKA PHARMACEUTICAL CO., LTD., priority 2009, dated 2017).

molecular target: T1, purified STEP46 enzyme (Homo sapiens, UniProt P54829); test: STEP46 biochemical assay (DiFMUP fluorescence phosphatase assay); conditions: DiFMUP 10 μM, read-out: STEP IC50
T1 sequence (P54829 1-565): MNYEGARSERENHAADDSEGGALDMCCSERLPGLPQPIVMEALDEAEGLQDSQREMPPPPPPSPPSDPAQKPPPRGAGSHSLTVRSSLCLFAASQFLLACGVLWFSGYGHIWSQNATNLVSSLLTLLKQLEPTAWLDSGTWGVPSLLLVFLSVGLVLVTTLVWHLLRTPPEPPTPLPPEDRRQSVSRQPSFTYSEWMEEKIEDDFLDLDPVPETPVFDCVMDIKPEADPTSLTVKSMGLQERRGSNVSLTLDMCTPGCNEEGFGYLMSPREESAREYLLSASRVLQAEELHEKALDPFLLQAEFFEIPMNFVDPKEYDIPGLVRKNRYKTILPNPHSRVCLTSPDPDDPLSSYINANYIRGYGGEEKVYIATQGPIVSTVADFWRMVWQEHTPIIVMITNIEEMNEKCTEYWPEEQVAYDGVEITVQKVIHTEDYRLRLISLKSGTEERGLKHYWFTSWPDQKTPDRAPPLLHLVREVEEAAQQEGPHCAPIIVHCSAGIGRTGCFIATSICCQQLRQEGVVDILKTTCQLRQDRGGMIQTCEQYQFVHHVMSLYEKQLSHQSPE
Description: STEP46 Biochemical Assays
Serial dilutions of compounds were performed in 100% DMSO and 1 uL of compounds were dispensed into 384-well black polystyrene plates (Corning, NY). Compounds were incubated with 24 uL of buffer containing 50 mM Hepes, 1 mM DTT, 0.02% Brij35, 1 ng/well purified STEP46 enzyme for 30 min at room temperature. The reaction was initiated by addition of 25 uL of DiFMUP (6, 8-difluoro-4-methylumbelliferyl phosphate) (InVitrogen, CA) with a final concentration of 10 μM and incubated at 27° C. for 90 min. Final DMSO concentration is 2%. Plates were read with florescence intensity at excitation/emission of 360/460 nm using a PheraStar plate reader (BMG Labtech, NC).
Data were expressed as percentage (%) inhibition of enzyme activity. 0% inhibition is defined as the RFUs (relative fluorescence units) in the absence of compounds and 100% inhibition is defined as RFUs in the absence of STEP46 enzyme. IC50 values of compounds with inhibitory activity against STEP46 were determined by GraphPad Prism (version 4.03) using four parameter logistic equation. Some compounds act as activators. For compounds showing STEP46 enzymatic activation, data are represented as percentage of inhibition but with negative values at three representative concentrations (25, 50 and 100 uM).

Row | Compound | IC50
1 | COc1cncc(-c2ccc3nc(-c4cccnc4)nc(Nc4ccc(F)c(Cl)c4)c3c2)c1 [Compound 660] | < 1000 nM
2 | Fc1ccc(Nc2nc(-c3cccnc3)nc3ccc(-c4ccccc4F)cc23)cc1Cl [Compound 641] | < 1000 nM
3 | COc1ccc2nc(-c3cccnc3)nc(Nc3nc(-c4cccc(Cl)c4)cs3)c2c1 [Compound 430] | < 1000 nM
4 | COc1cccc(-c2ccc3c(Nc4ccc(F)c(Cl)c4)nc(-c4cccnc4)nc3c2)c1 [Compound 681] | 1000 to 10000 nM
5 | COc1ccc2nc(-c3cccnc3)nc(Nc3ccc4sc(=O)[nH]c4c3)c2c1 [Compound 326] | 1000 to 10000 nM
6 | Fc1ccc(Nc2nc(-c3cccnc3)nc3ccc(-c4cccc(OC(F)(F)F)c4)cc23)cc1Cl [Compound 658] | 1000 to 10000 nM
7 | COc1ccc2nc(-c3cccnc3)nc(Nc3ccc4c(c3)OCCO4)c2c1 [Compound 297] | > 10000 nM
8 | CNC(=O)c1ccc(-c2ccc3nc(-c4cccnc4)nc(Nc4ccc(F)c(Cl)c4)c3c2)cc1 [Compound 667] | < 1000 nM
9 | COc1ccc2nc(-c3cccnc3)nc(Nc3ccc4ccc(=O)[nH]c4c3C)c2c1 [Compound 343] | > 10000 nM
10 | COc1cccc(-c2csc(Nc3nc(-c4cccnc4)nc4ccc(OC)cc34)n2)c1 [Compound 434] | 1000 to 10000 nM
11 | COc1ccc2nc(-c3cccnc3)nc(Nc3nc(-c4ccccc4C)cs3)c2c1 [Compound 444] | < 1000 nM
12 | COc1ccc2nc(-c3cccnc3)nc(Nc3cccc4cc[nH]c34)c2c1 [Compound 300] | > 10000 nM
13 | COc1ccc2nc(-c3cccnc3)nc(Nc3ccccc3Br)c2c1 [Compound 437] | 1000 to 10000 nM
14 | COc1cncc(-c2ccc3nc(-c4cccnc4)nc(Nc4ccc5[nH]c(=O)sc5c4)c3c2)c1 [Compound 329] | < 1000 nM
15 | CCOc1ccc2nc(-c3cccnc3)nc(Nc3nc(-c4cccc(F)c4F)cs3)c2c1 [Compound 470] | 1000 to 10000 nM
16 | COc1cccc(-c2ccc3nc(-c4cccnc4)nc(Oc4ccccc4C(N)=O)c3c2)c1 [Compound 393] | 1000 to 10000 nM
17 | COc1cccc(-c2ccc3nc(-c4cccnc4)nc(Oc4ccc(F)c(Cl)c4)c3c2)c1 [Compound 390] | 1000 to 10000 nM
18 | CCOc1ccc2nc(-c3cccnc3)nc(Nc3ccc4ccsc4c3)c2c1 [Compound 315] | 1000 to 10000 nM
19 | COc1ccc2nc(-c3cccnc3)nc(Nc3ccc4scnc4c3)c2c1 [Compound 320] | 1000 to 10000 nM
20 | CCOc1ccc2nc(-c3cccnc3)nc(Nc3ccccc3C(N)=O)c2c1 [Compound 73] | 1000 to 10000 nM
21 | O=[N+]([O-])c1cccc(-c2ccc3nc(-c4cccnc4)nc(Nc4ccc(F)c(Cl)c4)c3c2)c1 [Compound 635] | < 1000 nM
22 | Fc1ccc(Nc2nc(-c3cccnc3)nc3ccc(-c4cccc(Cl)c4)cc23)cc1Cl [Compound 629] | 1000 to 10000 nM
23 | COc1ccc2nc(-c3cccnc3)nc(Nc3ccc4oc(=O)[nH]c4c3)c2c1 [Compound 317] | 1000 to 10000 nM
24 | COc1ncc(-c2ccc3nc(-c4cccnc4)nc(Nc4ccc(F)c(Cl)c4)c3c2)c(OC)n1 [Compound 653] | < 1000 nM
25 | Fc1ccc(Nc2nc(-c3cccnc3)nc3cc(-c4cccnc4)ccc23)cc1Cl [Compound 677] | > 10000 nM
26 | CC(C)Oc1cccc(-c2ccc3nc(-c4cccnc4)nc(Nc4ccc(F)c(Cl)c4)c3c2)c1 [Compound 673] | 1000 to 10000 nM
27 | COc1ccc2nc(-c3cccnc3)nc(Nc3cccc(-c4ccc(Cl)cc4)c3)c2c1 [Compound 427] | 1000 to 10000 nM
28 | COc1ccc2nc(-c3cccnc3)nc(Nc3nc(-c4cc(F)cc(F)c4)cs3)c2c1 [Compound 457] | 1000 to 10000 nM
29 | CCOc1ccc2nc(-c3cccnc3)nc(Nc3ccc4c(c3)NC(=O)CC4)c2c1 [Compound 337] | < 1000 nM
30 | CCOc1ccc2nc(-c3cccnc3)nc(Nc3nc(-c4ccc(Cl)cc4)cs3)c2c1 [Compound 467] | 1000 to 10000 nM

More lines, now with the values ahead:

Row | IC50 | Compound
31 | > 10000 nM | N#Cc1cccc(Nc2nc(-c3cnccn3)nc3ccccc23)c1 [Compound 1221]
32 | > 10000 nM | CNc1nc(-c2cccnc2)nc2cc(-c3cccc(C)c3)ccc12 [Compound 1361]
33 | 1000 to 10000 nM | CNc1nc(-c2cccnc2)nc2c(C)c(-c3ccccc3F)ccc12 [Compound 1446]
34 | 1000 to 10000 nM | COc1ccc2nc(-c3cncnc3)nc(Nc3ccccc3C(N)=O)c2c1 [Compound 1172]
35 | < 1000 nM | NC(=O)c1ccccc1Nc1nc(-c2cccnc2)nc2cc(-c3cccc(F)c3)ccc12 [Compound 700]
36 | 1000 to 10000 nM | CN(C)c1ccc2nc(-c3ccnnc3)nc(Nc3cccc(OC(F)F)c3)c2c1 [Compound 1153]
37 | 1000 to 10000 nM | COc1ccc2nc(-c3cccnc3)nc(Nc3ccc(C)c(C)c3)c2c1 [Compound 923]
38 | 1000 to 10000 nM | CNc1nc(-c2cccnc2)nc2cc(-c3ccc(C#N)cc3)c(C)cc12 [Compound 1410]
39 | 1000 to 10000 nM | COc1ccc2nc(-c3cccnc3)nc(Nc3ccccc3C(=O)NCc3ccc4c(c3)CCC4)c2c1 [Compound 900]
40 | 1000 to 10000 nM | CNc1nc(-c2cccnc2)nc2ccc(-c3cc(F)c(F)cc3F)cc12 [Compound 1376]
41 | 1000 to 10000 nM | CNc1nc(-c2cccnc2)nc2cc(C)c(-c3ccc(F)cc3)cc12 [Compound 1414]
42 | > 10000 nM | CNc1nc(-c2cccnc2)nc2ccc(-c3cccnc3OC)cc12 [Compound 1330]
43 | 1000 to 10000 nM | CNc1nc(-c2cccnc2)nc2cc(-c3cc(F)ccc3F)c(C)cc12 [Compound 1406]
44 | 1000 to 10000 nM | FC(F)Oc1cc(Cl)cc(Nc2nc(-c3cccnc3)nc3ccccc23)c1 [Compound 1213]
45 | 1000 to 10000 nM | CNc1nc(-c2cccnc2)nc2ccc(-c3cccc(OCCOC)c3)cc12 [Compound 1680, 6-(3-(2-methoxyethoxyl)phenyl)-N-methyl-2-(pyridin-3-yl)quinazolin-4-amine]
46 | 1000 to 10000 nM | CNc1nc(-c2cccnc2)nc2ccc(-c3cc(OC)ccc3F)cc12 [Compound 1400]
47 | 1000 to 10000 nM | CNc1nc(-c2cccnc2)nc2ccc(-c3cccc(OC)c3)cc12 [Compound 1248]
48 | 1000 to 10000 nM | CNc1nc(-c2cccnc2)nc2c(C)c(-c3cc(F)ccc3F)ccc12 [Compound 1450]
49 | 1000 to 10000 nM | Clc1ccc2nc(-c3cnccn3)nc(Nc3ccc(Cl)c(Cl)c3)c2c1 [Compound 1160]
50 | 1000 to 10000 nM | COc1ccc2c(Nc3ccc(F)c(Cl)c3)nc(-c3ccnnc3)nc2c1 [Compound 1155]

Row | IC50 | Compound
51 | 1000 to 10000 nM | CNc1nc(-c2cccnc2)nc2c(C)cc(-c3ccccc3C#N)cc12 [Compound 1284]
52 | 1000 to 10000 nM | COc1ccc2nc(-c3cnccn3)nc(Nc3cccc(C#N)c3)c2c1 [Compound 1193]
53 | 1000 to 10000 nM | CC(=O)Nc1nc(-c2cccnc2)nc2ccc(-c3cccc(F)c3F)cc12 [Compound 1369]
54 | < 1000 nM | N#Cc1ccccc1-c1ccc2c(Nc3ccc(F)c(Cl)c3)nc(-c3cccnc3)nc2c1 [Compound 685]
55 | 1000 to 10000 nM | CNc1nc(-c2ccnnc2)nc2ccc(-c3cccc(F)c3F)cc12 [Compound 1237]
56 | 1000 to 10000 nM | COc1ccc2c(Nc3ccc(F)c(Cl)c3)nc(-c3cnccn3)nc2c1 [Compound 1148]
57 | 1000 to 10000 nM | CNc1nc(-c2cccnc2)nc2cc(-c3cccc(OC)c3)c(C)cc12 [Compound 1412]
58 | 1000 to 10000 nM | Cc1cccc2c(Nc3ccc(Cl)c(Cl)c3)nc(-c3cnccn3)nc12 [Compound 1178]
59 | 1000 to 10000 nM | CNc1nc(-c2cccnc2)nc2ccc(-c3csc4ccccc34)cc12 [Compound 1339]
60 | 1000 to 10000 nM | CNc1nc(-c2cccnc2)nc2ccc(-c3ccc4c(cnn4C)c3)cc12 [Compound 1366]
61 | 1000 to 10000 nM | FC(F)Oc1cccc(Nc2nc(-c3ccnnc3)nc3ccccc23)c1 [Compound 1183]
62 | 1000 to 10000 nM | Fc1ccccc1-c1ccc2c(NCc3ccccn3)nc(-c3cccnc3)nc2c1 [Compound 1425]
63 | 1000 to 10000 nM | CN(C)c1nc(-c2cccnc2)nc2ccc(-c3ccccc3Cl)cc12 [Compound 1332]
64 | 1000 to 10000 nM | Fc1ccc(Nc2nc(-c3cncnc3)nc3ccccc23)cc1Cl [Compound 1230]
65 | 1000 to 10000 nM | Cc1cccc2c(Nc3ccc(F)c(Cl)c3)nc(-c3cnccn3)nc12 [Compound 1176]
66 | 1000 to 10000 nM | N#Cc1ccc(-c2ccc3c(Nc4ccc(F)c(Cl)c4)nc(-c4cccnc4)nc3c2)cc1 [Compound 690]
67 | 1000 to 10000 nM | CNc1nc(-c2cccnc2)nc2cc(-c3ccccc3C#N)ccc12 [Compound 1363]
68 | 1000 to 10000 nM | CN(C)c1nc(-c2cccnc2)nc2ccc(-c3ccc(F)cc3F)cc12 [Compound 1381]
69 | < 1000 nM | Fc1ccc(Nc2nc(-c3cccnc3)nc3cc(-c4ccccc4)ccc23)cc1Cl [Compound 692]
